From patent publication US9303016B2, “Derivatives of aza adamantane and uses thereof” (CONNEXIOS LIFE SCIENCES PVT. LTD., priority 2011, dated 2016)

molecular target: T1, human full length HSD11β1 (Homo sapiens, UniProt P28845); assay: In Vitro HSD11β1 Inhibition Assay; assay type: cell-based; settings: CHO cells transiently expressing human HSD11β1; 200 nM cortisone+500 uM NADPH overnight; cortisone to cortisol by LC/MS-MS; read-out: 11βHSD1 (IC50)
T1 construct: transient expression of human full length HSD11β1 expression vector; host or cells: CHO cells, transient transfection
T1 sequence (P28845 whole entry): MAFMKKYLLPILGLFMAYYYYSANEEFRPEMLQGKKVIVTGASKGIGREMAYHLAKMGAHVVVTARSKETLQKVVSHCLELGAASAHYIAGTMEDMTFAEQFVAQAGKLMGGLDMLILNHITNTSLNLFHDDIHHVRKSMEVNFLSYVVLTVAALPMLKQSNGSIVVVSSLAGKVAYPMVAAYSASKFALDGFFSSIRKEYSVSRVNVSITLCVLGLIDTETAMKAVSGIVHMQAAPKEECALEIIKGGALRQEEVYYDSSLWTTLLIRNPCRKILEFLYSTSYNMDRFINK
Description: In Vitro HSD11β1 Inhibition Assay:
CHO cells were maintained in Dulbecco's modified Eagle's medium/nutrient mixture F-12 containing 5% fetal bovine serum (v/v) and 2 mM glutamine. Cells were cultured at 37° C. with 5% CO2. For transient expression of human full length HSD11β1 expression vector (OriGene Technologies), cells were seeded at a density of 2×10^5 cells/well in a 6-well plate. Transfection was done using Turbofectin8 reagent (OriGene Technologies), according to the protocol provided with the reagent. After 24 hours post-transfection, cells were trypsinized and pooled together before they were re-seeding to 96-well plate at a density of 40000 cells/well. 24 hours after re-seeding, cells were incubated with 200 nM cortisone+500 uM NADPH (or along with small molecule inhibitors) overnight. The enzymatic activity or inhibition of enzyme activity was measured by estimating the conversion of cortisone to cortisol by LC/MS-MS method. The IC50 in nM was calculated from a 8 point log scale of concentration versus inhibition.

Compound | IC50
CC(CC(=O)N1C2CC3CC1CC(C#N)(C3)C2)c1c[nH]c2ncc(Cl)cc12 (stereo not shown) [Compound 137, 2-[3-(6-chloro-1H-pyrrolo[2,3-b]pyridin-3-yl)butanoyl]-2-azatricyclo[3.3.1.1^3,7′]decane-5-carbonitrile] | > 0.25 µM
CC(CC(=O)N1C2CC3CC1CC(O)(C3)C2)c1c[nH]c2ccc(Cl)c(Cl)c12 (stereo not shown) [Compound 168, 3-(4,5-dichloro-1H-indol-3-yl)-1-(5-hydroxy-2-azatricyclo[3.3.1.1^3,7]dec-2-yl)butan-1-one] | < 0.1 µM
CC(C)C(CC(=O)N1C2CC3CC1CC(F)(C3)C2)c1c[nH]c2ccccc12 (stereo not shown) [Example 24, 1-(5-fluoro-2-azatricyclo[3.3.1.1^3,7]dec-2-yl)-3-(1H-indol-3-yl)-4-methylpentan-1-one] | > 0.25 µM
CC(CC(=O)N1C2CC3CC1CC(O)(C3)C2)c1nc2ccccc2s1 (single isomer, unassigned) [Compound 115, 3-(1,3-benzothiazol-2-yl)-1-(5-hydroxy-2-azatricyclo[3.3.1.1^3,7]dec-2-yl)butan-1-one] | 0.2 to 0.25 µM
CC(CC(=O)N1C2CC3CC1CC(CC(=O)O)(C3)C2)c1c[nH]c2cccc(C3CC3)c12 (stereo not shown) [Compound 152, {2-[3-(4-cyclopropyl-1H-indol-3-yl)butanoyl]-2-azatricyclo[3.3.1.1^3,7]dec-5-yl}acetic acid] | 0.1 to 0.15 µM
Cc1cccc2c1c(C(C)CC(=O)N1C3CC4CC1CC(O)(C4)C3)cn2C1CC1 (stereo not shown) [Compound 205, 3-(1-cyclopropyl-4-methyl-1H-indol-3-yl)-1-(5-hydroxy-2-azatricyclo[3.3.1.1^3,7]dec-2-yl)butan-1-one] | > 0.25 µM
CC(CC(=O)N1C2CC3CC1CC(C(=O)O)(C3)C2)c1c[nH]c2cccc(Cl)c12 (stereo not shown) [Example 43, 2-[3-(4-chloro-1H-indol-3-yl)butanoyl]-2-azatricyclo[3.3.1.1^3,7]decane-carboxylic acid] | > 0.25 µM
Cc1cccc2c1c(C(C)CC(=O)N1C3CC4CC1CC(O)(C4)C3)cn2S(=O)(=O)c1cccc2cccnc12 (stereo not shown) [Compound 216, 1-(5-hydroxy-2-azaadamantan-2-yl)-3-(4-methyl-1-(quinolin-8-ylsulfonyl)-1H-indol-3-yl)butan-1-one] | > 0.25 µM
CC(CC(=O)N1C2CC3CC(C2)CC1C3)c1c[nH]c2ncccc12 (stereo not shown) [Compound 85] | < 0.1 µM
CC(C)Oc1cccc2[nH]cc(C(C)CC(=O)N3C4CC5CC3CC(F)(C5)C4)c12 (single isomer, unassigned) [Compound 184, 1-(5-fluoro-2-azatricyclo[3.3.1.1^3,7]dec-2-yl)-3-[4-(propan-2-yloxy)-1H-indol-3-yl]butan-1-one] | < 0.1 µM
Cc1ccc2[nH]cc(C(C)CC(=O)N3C4CC5CC3CC(C#N)(C5)C4)c2c1C (stereo not shown) [Compound 221, 2-(3-(4,5-dimethyl-1H-indol-3-yl)butanoyl)-2-azaadamantane-5-carbonitrile] | > 0.25 µM
Cc1ccc2[nH]cc(C(C)CC(=O)N3C4CC5(C)CC3CC(O)(C4)C5)c2c1Cl (stereo not shown) [Compound 219, 3-(4-chloro-5-methyl-1H-indol-3-yl)-1-(5-hydroxy-7-methyl-2-azaadamantan-2-yl)butan-1-one] | < 0.1 µM
COC12CC3CC(C1)N(C(=O)CC(C)c1c[nH]c4cccc(F)c14)C(C3)C2 (single isomer, unassigned) [Example 31, 3-(4-fluoro-1H-indol-3-yl)-1-(5-methoxy-2-azatricyclo[3.3.1.1^3,7]dec-2-yl)butan-1-one] | < 0.1 µM
O=C(CCc1nc2ccccc2s1)N1C2CC3CC(C2)CC1C3 [Example 11, 1-(2-azatricyclo[3.3.1.1^3,7]dec-2-yl)-3-(1,3-benzothiazol-2-yl)propan-1-one] | > 0.25 µM
CC(CC(=O)N1C2CC3CC1CC(C(=O)NCc1ccc(C(=O)O)cc1)(C3)C2)c1c[nH]c2cccc(C3CC3)c12 (stereo not shown) [Example 63, 4-{[({2-[3-(4-cyclopropyl-1H-indol-3-yl)butanoyl]-2-azatricyclo[3.3.1.1^3,7]dec-5-yl}carbonyl)amino]methyl}benzoic acid] | > 0.25 µM
COC12CC3CC(C1)N(C(=O)CC(C)c1c[nH]c4ccccc14)C(C3)C2 (stereo not shown) [Example 34, 3-(1H-indol-3-yl)-1-(5-methoxy-2-azatricyclo[3.3.1.1^3,7]dec-2-yl)butan-1-one] | > 0.25 µM
CC(CC(=O)N1C2CC3CC1CC(O)(C3)C2)c1c[nH]c2cccc(F)c12 (stereo not shown) [Example 26, 3-(4-fluoro-1H-indol-3-yl)-1-(5-hydroxy-2-azatricyclo[3.3.1.1^3,7]dec-2-yl)butan-1-one] | 0.2 to 0.25 µM

Other lines, results leading:

IC50 | Compound
0.1 to 0.15 µM | COC12CC3CC(C1)N(C(=O)CC(C)c1c[nH]c4cccc(F)c14)C(C3)C2 (stereo not shown) [Example 29, 3-(4-fluoro-1H-indol-3-yl)-1-(5-methoxy-2-azatricyclo[3.3.1.1^3,7]dec-2-yl)butan-1-one]
< 0.1 µM | Cc1ccc2[nH]cc(C(C)CC(=O)N3C4CC5CC3CC(O)(C5)C4)c2c1Cl (stereo not shown) [Compound 166, 3-(4-chloro-5-methyl-1H-indol-3-yl)-1-(5-hydroxy-2-azatricyclo[3.3.1.1^3,7]dec-2-yl)butan-1-one]
0.1 to 0.15 µM | CC(CC(=O)N1C2CC3CC1CC(O)(C3)C2)c1c[nH]c2cc(Cl)ccc12 (stereo not shown) [Example 69, 3-(6-chloro-1H-indol-3-yl)-1-(5-hydroxy-2-azatricyclo[3.3.1.1^3,7]dec-2-yl)butan-1-one]
> 0.25 µM | Cc1ccnc2[nH]cc(C(C)CC(=O)N3C4CC5CC3CC(O)(C5)C4)c12 (stereo not shown) [Compound 88, 1-(5-hydroxy-2-azatricyclo[3.3.1.1^3,7]dec-2-yl)-3-(4-methyl-1H-pyrrolo[2,3-b]pyridin-3-yl)butan-1-one]
> 0.25 µM | CC(CC(=O)N1C2CC3CC1CC(O)(C3)C2)c1c[nH]c2ccccc12 (stereo not shown) [Example 20, 1-(5-hydroxy-2-azatricyclo[3.3.1.1^3,7]dec-2-yl)-3-(1H-indol-3-yl)butan-1-one]
> 0.25 µM | CC(CC(=O)N1C2CC3CC1CC(O)(C3)C2)c1c[nH]c2ccc(F)c(C3CC3)c12 (single isomer, unassigned) [Compound 158, 3-(4-cyclopropyl-5-fluoro-1H-indol-3-yl)-1-(5-hydroxy-2-azatricyclo[3.3.1.1^3,7]dec-2-yl)butan-1-one]
0.2 to 0.25 µM | CC(CC(=O)N1C2CC3CC1CC(C(C)C(=O)O)(C3)C2)c1c[nH]c2cccc(C3CC3)c12 (stereo not shown) [Compound 167, 2-{2-[3-(4-cyclopropyl-1H-indol-3-yl)butanoyl]-2-azatricyclo[3.3.1.1^3,7]dec-5-yl}propanoic acid]
> 0.25 µM | COc1ccc2[nH]cc(C(C)CC(=O)N3C4CC5CC3CC(O)(C5)C4)c2c1C (stereo not shown) [Compound 165, 1-(5-hydroxy-2-azatricyclo[3.3.1.1^3,7]dec-2-yl)-3-(5-methoxy-4-methyl-1H-indol-3-yl)butan-1-one]
> 0.25 µM | CC(CC(=O)N1C2CC3CC1CC(O)(C3)C2)c1c[nH]c2cc(F)ccc12 (single isomer, unassigned) [Compound 97, 3-(6-fluoro-1H-indol-3-yl)-1-(5-hydroxy-2-azatricyclo[3.3.1.1^3,7]dec-2-yl)butan-1-one]
< 0.1 µM | Cc1c(F)ccc2[nH]cc(C(C)CC(=O)N3C4CC5CC3CC(O)(C5)C4)c12 (single isomer, unassigned) [Compound 148, 3-(5-fluoro-4-methyl-1H-indol-3-yl)-1-(5-hydroxy-2-azatricyclo[3.3.1.1^3,7]dec-2-yl)butan-1-one]
< 0.1 µM | Cc1ccc2[nH]cc(C(C)CC(=O)N3C4CC5CC3CC(O)(C5)C4)c2c1C (single isomer, unassigned) [Compound 169, 3-(4,5-dimethyl-1H-indol-3-yl)-1-(5-hydroxy-2-azatricyclo[3.3.1.1^3,7]dec-2-yl)butan-1-one]
> 0.25 µM | CC(CC(=O)N1C2CC3CC1CC(O)(C3)C2)c1cn(CCO)c2cccc(C3CC3)c12 (stereo not shown) [Compound 80, 3-[4-cyclopropyl-1-(2-hydroxyethyl)-1H-indol-3-yl]-1-(5-hydroxy-2-azatricyclo[3.3.1.1^3,7]dec-2-yl)butan-1-one]
0.2 to 0.25 µM | Cc1cccc2[nH]cc(CCC(=O)N3C4CC5CC3CC(O)(C5)C4)c12 [Compound 116, 1-(5-hydroxy-2-azatricyclo[3.3.1.1^3,7]dec-2-yl)-3-(4-methyl-1H-indol-3-yl)propan-1-one]
> 0.25 µM | CC(CC(=O)N1C2CC3CC1CC(C#N)(C3)C2)c1nc2c(Cl)cccc2s1 (single isomer, unassigned) [Compound 125, 2-[3-(4-chloro-1,3-benzothiazol-2-yl)butanoyl]-2-azatricyclo[3.3.1.1^3,7]decane-5-carbonitrile]
> 0.25 µM | CC(CC(=O)N1C2CC3CC1CC(CC(=O)O)(C3)C2)c1c[nH]c2cccc(-c3ccc(F)o3)c12 (stereo not shown) [Compound 215, 2-(2-(3-(4-(5-fluorofuran-2-yl)-1H-indol-3-yl)butanoyl)-2-azaadamantan-5-yl)acetic acid]
< 0.1 µM | O=C(CC(c1ccccc1)c1c[nH]c2cc(F)ccc12)N1C2CC3CC1CC(O)(C3)C2 (stereo not shown) [Compound 94, 3-(6-fluoro-1H-indol-3-yl)-1-(5-hydroxy-2-azatricyclo[3.3.1.1^3,7]dec-2-yl)-3-phenylpropan-1-one]
> 0.25 µM | CC(CC(=O)N1C2CC3CC1CC(CC(=O)O)(C3)C2)c1c[nH]c2cccc(C3CC3)c12 (single isomer, unassigned) [Compound 156, {2-[3-(4-cyclopropyl-1H-indol-3-yl)butanoyl]-2-azatricyclo[3.3.1.1^3,7]dec-5-yl}acetic acid]
